Measurements: publication PMC6222329 (Molecules : A Journal of Synthetic Chemistry and Natural …, 2018)

Tests used:
BChE (Human) = target: T1, BChE (Human) (Homo sapiens, UniProt P06276); assay: BChE inhibition, Ellman's method; assay type: biochemical; conditions: for IC50: read-out: BChE (Human) IC50
T1 construct: purchased Sigma-Aldrich (Steinheim, Germany)
Protocol: (§1) The assay was performed in two steps.
(§2) All enzymes were obtained from Sigma-Aldrich (Steinheim, Germany). Ellman’s reagent and the substrates were obtained from Fluka (Buchs, Switzerland). The chemicals used to prepare the buffer solution were purchased from Merck (Darmstadt, Germany).
(§3) The enzyme inhibitory activities of the synthesized compounds were investigated by applying Ellman’s method. Enzyme solutions were dissolved in gelatin solution (1%; 2.5 units/mL). […] Then, the reaction was initiated by the addition of Ellman’s reagent 5,5′-Dithiobis(2-nitrobenzoic acid) (DTNB; 20 µL/well, 10 mM) and the substrate (10 µL/well, 75 mM). […] The enzyme solution was processed as a control. All readings were adjusted with blank-reading. All assays were performed in four independent wells. […] Absorbance differences between the two readings were taken, and percentage inhibition rates were calculated according to the following formula: % Inhibition=[(A(C)−A(B))−(A(I)−A(B))]/(A(C)−A(B))×100.
(§4) • Blank (B): the well in which the inhibitor compound and substrate were not added; • Control (C): the well where the inhibitor compound was not added; • A(B): the difference in absorbance reading for the blank; • A(C): the difference in absorbance reading for the control; • A(I): the difference in absorbance reading for the inhibitor compounds.

BChE (Equine) = target: T2, BChE (Equine) (Equus caballus, UniProt P81908); assay: biochemical; assay type: biochemical
T2 construct: purchased Sigma-Aldrich (Steinheim, Germany)
T2 sequence (P81908 whole entry): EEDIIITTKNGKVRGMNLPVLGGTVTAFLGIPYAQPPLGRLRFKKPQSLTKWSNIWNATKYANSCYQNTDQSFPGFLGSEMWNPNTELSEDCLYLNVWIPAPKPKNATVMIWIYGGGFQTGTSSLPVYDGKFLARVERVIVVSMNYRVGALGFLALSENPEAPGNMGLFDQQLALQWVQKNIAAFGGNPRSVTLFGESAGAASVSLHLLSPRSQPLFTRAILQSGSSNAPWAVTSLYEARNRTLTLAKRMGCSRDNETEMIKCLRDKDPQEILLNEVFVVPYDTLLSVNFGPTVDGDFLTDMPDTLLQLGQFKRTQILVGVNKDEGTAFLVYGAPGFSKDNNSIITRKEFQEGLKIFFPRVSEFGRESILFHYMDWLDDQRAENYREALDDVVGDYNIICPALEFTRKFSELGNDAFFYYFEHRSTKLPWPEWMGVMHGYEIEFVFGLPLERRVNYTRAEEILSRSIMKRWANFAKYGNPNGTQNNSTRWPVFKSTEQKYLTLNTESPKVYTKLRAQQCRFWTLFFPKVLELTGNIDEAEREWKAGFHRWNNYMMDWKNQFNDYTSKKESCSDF
Protocol: as §1, §2, §3, §4

[1] = target: T3, AChE (Electrophorus electricus) (Electrophorus electricus, UniProt O42275); assay: AChE inhibition, Ellman's method; assay type: biochemical
T3 construct: purchased Sigma-Aldrich (Steinheim, Germany)
T3 sequence (O42275 24-633): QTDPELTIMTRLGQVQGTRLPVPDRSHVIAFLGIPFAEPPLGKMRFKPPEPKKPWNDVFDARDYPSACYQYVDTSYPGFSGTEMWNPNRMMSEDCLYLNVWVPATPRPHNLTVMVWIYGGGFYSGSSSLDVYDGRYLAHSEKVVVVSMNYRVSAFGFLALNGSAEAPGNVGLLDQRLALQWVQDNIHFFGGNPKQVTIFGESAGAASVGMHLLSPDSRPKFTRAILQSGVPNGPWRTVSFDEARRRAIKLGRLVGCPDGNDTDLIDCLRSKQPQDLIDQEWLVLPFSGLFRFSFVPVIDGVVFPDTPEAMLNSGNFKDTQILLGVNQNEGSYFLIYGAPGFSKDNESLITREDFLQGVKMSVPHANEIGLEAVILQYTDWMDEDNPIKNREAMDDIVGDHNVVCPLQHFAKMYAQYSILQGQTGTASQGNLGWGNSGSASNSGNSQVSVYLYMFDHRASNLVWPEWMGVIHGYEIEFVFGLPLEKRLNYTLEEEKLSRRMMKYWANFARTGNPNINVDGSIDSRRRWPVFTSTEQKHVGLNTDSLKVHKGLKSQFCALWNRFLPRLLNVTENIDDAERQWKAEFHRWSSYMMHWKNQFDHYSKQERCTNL
Protocol: as §1, §2, §3, §4

AChE (Human) = target: T4, AChE (Human) (Homo sapiens, UniProt P22303); assay: AChE inhibition, Ellman's method; assay type: biochemical
T4 construct: purchased Sigma-Aldrich (Steinheim, Germany)
T4 sequence (P22303 32-614): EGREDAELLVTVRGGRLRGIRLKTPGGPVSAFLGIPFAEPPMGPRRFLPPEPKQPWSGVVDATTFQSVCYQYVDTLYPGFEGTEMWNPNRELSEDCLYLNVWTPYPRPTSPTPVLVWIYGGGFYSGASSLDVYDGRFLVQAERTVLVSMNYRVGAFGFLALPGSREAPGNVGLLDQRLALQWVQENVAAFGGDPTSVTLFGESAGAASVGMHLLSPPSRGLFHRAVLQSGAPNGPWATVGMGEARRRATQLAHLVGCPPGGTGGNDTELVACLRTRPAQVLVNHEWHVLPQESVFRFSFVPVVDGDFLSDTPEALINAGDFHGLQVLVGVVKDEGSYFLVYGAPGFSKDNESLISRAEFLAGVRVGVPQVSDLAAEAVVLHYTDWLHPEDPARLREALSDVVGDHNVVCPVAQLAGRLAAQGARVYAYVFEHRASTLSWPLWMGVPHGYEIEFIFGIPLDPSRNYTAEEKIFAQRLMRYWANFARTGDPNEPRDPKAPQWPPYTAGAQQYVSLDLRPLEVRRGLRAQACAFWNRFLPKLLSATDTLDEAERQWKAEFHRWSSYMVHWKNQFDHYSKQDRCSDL
Protocol: as §1, §2, §3, §4

[2] = system: murine fibroblast healthy cell line (NIH3T3); assay: MTT cell viability assay; assay type: cell-based; conditions: 24 h, 0.000316 µM to 1000 µM, read-out: IC50 against NIH3T3
Protocol: The active compounds (4a, 4b, 4e, 4i, 4m, 4n, 4o, and 4t) were chosen to determine their cytotoxic activity toward a murine fibroblast healthy cell line (NIH3T3). After incubating the cells with active compounds at concentrations of 0.000316 µM to1000 µM for 24 h, the cell viability was measured using the 3-(4,5-dimethylthiazol-2-yl)-2,5-diphenyltetrazolium (MTT) assay. The inhibition percentage was calculated for each concentration of the test compounds. The IC50 values of the compounds were determined using a non-linear regression analysis over the calculated percentage inhibition values, and they are presented in Table 2. Accordingly, the cytotoxicity test proposed that the active derivatives were nontoxic against NIH3T3 cells at their active concentrations against BChE.
Healthy murine embryonic fibroblast cells (NIH3T3 cell line) were used for the cytotoxicity tests. The cell line and selected compounds were prepared for an MTT assay as reported previously. The optical densities (OD) of 96 well plates were recorded at 540 nm. […]

T1 sequence (P06276 29-602): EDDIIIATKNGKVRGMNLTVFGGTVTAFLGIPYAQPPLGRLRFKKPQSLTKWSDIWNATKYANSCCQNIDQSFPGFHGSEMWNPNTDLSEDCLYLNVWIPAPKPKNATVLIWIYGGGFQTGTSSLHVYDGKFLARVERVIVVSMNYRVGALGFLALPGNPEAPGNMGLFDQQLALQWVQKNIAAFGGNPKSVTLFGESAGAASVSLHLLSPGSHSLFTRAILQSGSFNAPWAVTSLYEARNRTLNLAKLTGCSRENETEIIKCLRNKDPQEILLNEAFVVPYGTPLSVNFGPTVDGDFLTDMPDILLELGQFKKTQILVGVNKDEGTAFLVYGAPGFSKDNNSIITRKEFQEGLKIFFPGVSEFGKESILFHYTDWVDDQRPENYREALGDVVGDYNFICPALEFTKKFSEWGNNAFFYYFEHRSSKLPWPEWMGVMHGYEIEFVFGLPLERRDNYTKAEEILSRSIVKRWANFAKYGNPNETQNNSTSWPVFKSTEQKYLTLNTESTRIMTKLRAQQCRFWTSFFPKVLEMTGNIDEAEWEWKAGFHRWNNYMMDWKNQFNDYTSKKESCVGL

SMILES	BChE (Human) inhibitory activity (%) ± SD (BChE (Human); 10^-3 M)	BChE (Human) inhibitory activity (%) ± SD (BChE (Human); 10^-4 M)	BChE (Human) inhibitory activity (%) ± SD (BChE (Human); 10^-5 M)	BChE (Human) inhibitory activity (%) ± SD (BChE (Human); 10^-6 M)	BChE (Human) inhibitory activity (%) ± SD (BChE (Human); 10^-7 M)	BChE (Human) inhibitory activity (%) ± SD (BChE (Human); 10^-8 M)	BChE (Human) inhibitory activity (%) ± SD (BChE (Human); 10^-9 M)	IC50 (BChE (Human))	IC50 (BChE (Equine))	BChE (Equine) inhibitory activity (%) ± SD (BChE (Equine); 10^-3 M)	BChE (Equine) inhibitory activity (%) ± SD (BChE (Equine); 10^-4 M)	BChE (Equine) inhibitory activity (%) ± SD (BChE (Equine); 10^-5 M)	BChE (Equine) inhibitory activity (%) ± SD (BChE (Equine); 10^-6 M)	BChE (Equine) inhibitory activity (%) ± SD (BChE (Equine); 10^-7 M)	BChE (Equine) inhibitory activity (%) ± SD (BChE (Equine); 10^-8 M)	BChE (Equine) inhibitory activity (%) ± SD (BChE (Equine); 10^-9 M)	AChE (Electrophorus electricus) inhibitory activity (%) ± SD ([1]; 10^-3 M)	AChE (Electrophorus electricus) inhibitory activity (%) ± SD ([1]; 10^-4 M)	AChE (Human) inhibitory activity (%) ± SD (AChE (Human); 10^-3 M)	AChE (Human) inhibitory activity (%) ± SD (AChE (Human); 10^-4 M)	also measured
CN(C)CCCN1CCN(C(=S)SCC(=O)Nc2c3ccccc3nc3ccccc23)CC1 [Compound 4b, 2-(9-Acridinylamino)-2-oxoethyl 4-(3-(dimethylamino)propyl)piperazine-1-carbodithioate]	97.55±2.05%	* 84.18 ± 2.21%	72.99 ±1.35%	45.26±0.85%	40.87±0.67%	35.28±0.53%	28.74±0.50%	0.222 ± 0.01 µM	0.264 ± 0.012 µM	98.16±3.11%	* 82.50 ± 2.07%	70.30 ±1.80%	46.10±0.74%	41.80±0.81%	33.04±0.78%	26.35±0.77%	79.95±1.78%	32.41 ± 1.01%	75.66±1.17%	35.49 ± 1.00%	IC50 [2]: 25.6 µM
CN(C)CCN1CCN(C(=S)SCC(=O)Nc2c3ccccc3nc3ccccc23)CC1 [Compound 4a, 2-(9-Acridinylamino)-2-oxoethyl 4-(2-(dimethylamino)ethyl)piperazine-1-carbodithioate]	98.50±2.46%	* 93.25 ± 2.24%	86.20±1.46%	55.00±1.11%	36.21±0.97%	30.20±0.68%	15.79±0.81%	0.243 ± 0.009 µM	0.226 ± 0.008 µM	99.13±3.21%	* 91.13 ± 2.94%	84.80±2.76%	52.10±1.04%	39.90±0.81%	28.24±0.54%	19.69±0.99%	60.13±1.54%	17.03 ± 0.48%	62.20±1.05%	18.15 ± 0.51%	IC50 [2]: 26.8 µM
O=C(CSC(=S)N1CCN(CCO)CC1)Nc1c2ccccc2nc2ccccc12 [Compound 4e, 2-(9-Acridinylamino)-2-oxoethyl 4-(2-hydroxyethyl)piperazine-1-carbodithioate]	98.95±2.10%	* 96.57 ± 2.03%	55.00±1.20%	30.62±1.28%	26.54±0.74%	17.89±0.53%	8.72±0.30%	1.37 ± 0.057 µM	1.42 ± 0.068 µM	97.00±3.16%	* 95.98 ± 2.88%	57.53±1.89%	29.52±1.07%	24.26±0.54%	18.89±0.84%	10.77±0.58%	48.67±1.51%	7.09 ± 0.64%	50.22±1.12%	10.13 ± 0.51%	IC50 [2]: 325 µM
